≈ marks a conversion by molar mass, not a printed value. Non-standard residues stand in square brackets, D forms with d. Residues, ends and D or L forms follow the SMILES beside them. Cha = N[C@@H](CC1CCCCC1)C(=O)O; Chg = N[C@H](C(=O)O)C1CCCCC1; dDab = NCC[C@@H](N)C(=O)O; Orn = NCCC[C@H](N)C(=O)O; Dab = NCC[C@H](N)C(=O)O
Tests used:
[1] = test system: P. aeruginosa ATCC 27853; type: cell-based, Pseudomonas aeruginosa; conditions: ATCC 27853
Protocol: (§1) The selective antimicrobial activities of the peptides were determined in 96-well plates (Nunclon polystyrene) by the standard NCCLS broth microdilution method (see ref 1, below) with slight modifications. Innocula of the microorganisms were diluted into Mueller-Hinton (MH) broth+0.02% BSA and compared with a 0.5 Mcfarland standard to give appr. 10^6 colony forming units (CFU)/ml. Aliquots (50 μl) of inoculate were added to 50 μl of MH broth+0.02% BSA containing the peptide in serial two-fold dilutions. The following microorganisms were used to determine antibiotic selectivity of the peptides: Escherichia coli (ATCC 25922), Pseudomonas aeruginosa (P. aeruginosa ATCC 27853, P8191900, P1021903, P1021913, IMP 1 Livermore 3140).

[2] = test system: Pseudomonas aeruginosa IMP 1 Livermore 3140; type: cell-based; conditions: IMP 1 Livermore 3140
Protocol: as §1

[3] = test system: Pseudomonas aeruginosa P1021903; type: cell-based; conditions: P1021903
Protocol: as §1

[4] = test system: Pseudomonas aeruginosa P1021913; type: cell-based; conditions: P1021913
Protocol: as §1

[5] = test system: Pseudomonas aeruginosa P8191900; type: cell-based; conditions: P8191900
Protocol: as §1

[6] = test system: HELA cells (Acc57); experiment: Cytotoxicity assay, MTT reduction (LC 50, GI 50); type: cell-based
Protocol: The cytotoxicity of the peptides to HELA cells (Acc57) and COS-7 cells (CRL-1651) was determined using the MIT reduction assay [see ref. 2 and 3, below]. Briefly the method was as follows: HELA cells and COS-7 cells were seeded at 7.0×10^3 and, respectively, 4.5×10^3 cells per well and grown in 96-well […] plates for 24 hours at 37° C. at 5% CO2. At this point, time zero (Tz) was determined by MTT reduction (see below). The supernatant of the remaining wells was discarded, and fresh medium and the peptides in serial dilutions of 12.5, 25 and 50 μM were dispensed into the wells. Each peptide concentration was assayed in triplicate. Incubation of the cells was continued for 48 hours at 37° C. at 5% CO2. Wells were then washed once with phosphate buffered saline (PBS) and subsequently 100 μl MIT reagent (0.5 mg/ml in medium RPMI1640 and, respectively, DMEM) were added to the wells. This was incubated at 37° C. for 2 hours and subsequently the medium was aspirated and 100 μl isopropanol were added to each well. The absorbance at 595 nm of the solubilized product was measured (OD595peptide). For each concentration averages were calculated from triplicates. The percentage of growth was calculated as follows: (OD595peptide-OD595Tz-OD595Empty well)/(OD595Tz-OD595Empty well)×100% and was plotted for each peptide concentration.
The LC 50 values (Lethal Concentration, defined as the concentration that kills 50% of the cells) were determined for each peptide by using the trend line function of EXCEL (Microsoft Office 2000) for the concentrations (50, 25, 12.5 and 0 μM), the corresponding growth percentages and the value −50, (=TREND(C50:C0,%50:%0,−50)). The GI 50 (Growth Inhibition) concentrations were calculated for each peptide by using a trend line function for the concentrations (50, 25, 12.5 and 0 […]), the corresponding percentages and the value 50, (=TREND (C50:C0,%50:%0,50).

[7] = test system: human red blood cells (hRBC); experiment: Hemolysis; type: cell-based; conditions: 100
Protocol: Hemolysis of red blood cells is often employed for assessment of toxicity of related compounds such as protegrin or tachyplesin. Values are given as %-lysis of red blood cells observed at a concentration of 100 μg/ml. Typical values determined for cationic peptides such as protegrin and tachyplesin range between 30-40% with average MIC-values of 1-5 μg/ml over a wide range of pathogens.
The peptides were tested for their hemolytic activity against human red blood cells (hRBC). Fresh hRBC were washed three times with phosphate buffered saline (PBS) by centrifugation for 10 min at 2000×g. Peptides at a concentration of 100 μM were incubated with 20% v/v hRBC for 1 hour at 37° C. The final erythrocyte concentration was approximately 0.9×10^9 cells per ml. A value of 0% and, respectively, 100% cell lysis was determined by incubation of the hRBC in the presence of PBS alone and, respectively, 0.1% Triton X-100 in H2O. The samples were centrifuged, the supernatant was 20-fold diluted in PBS buffer and the optical density (OD) of the sample at […] was measured. The 100% lysis value (OD540H20) gave an OD540 of approximately 1.3-1.8. Percent hemolysis was calculated as follows: (OD540peptide/OD540H20)×100%.

[8] = test system: P. aeruginosa

Row | SMILES | MIC P. aeruginosa ATCC 27853 [1] | MIC P. aeruginosa IMP1 Livermore 3140 [2] | MIC P. aeruginosa P1021903 [3] | MIC P. aeruginosa P1021913 [4] | MIC P. aeruginosa P8191900 [5] | Cytotoxicity GI50 Hela cells [6] | Hemolysis at 100 μg/ml [7] | Average MIC [8]
1 | C[C@@H]1NC(=O)[C@H](CCN)NC(=O)[C@H](CCN)NC(=O)[C@H](Cc2c[nH]c3ccccc23)NC(=O)[C@H](CCN)NC(=O)[C@H](CCN)NC(=O)[C@H](CCCCN)NC(=O)[C@H](CCN)NC(=O)[C@H](CC2CCCCC2)NC(=O)[C@H](Cc2c[nH]c3ccccc23)NC(=O)[C@H]([C@@H](C)O)NC(=O)[C@@H]2CCCN2C(=O)[C@H]2CCCN2C(=O)[C@H](CCN)NC1=O [Example 34] (cyclo(TW[Cha][Dab]K[Dab][Dab]W[Dab][Dab]A[Dab][dP]P)) | 0.05 µg/mL (≈ 0.0308 µM) | 0.60 µg/mL (≈ 0.37 µM) | 0.29 µg/mL (≈ 0.179 µM) | 0.48 µg/mL (≈ 0.296 µM) | 0.24 µg/mL (≈ 0.148 µM) | 50 µM | 0% | 0.33 µg/mL
2 | CC[C@H](C)[C@@H]1NC(=O)[C@H](Cc2c[nH]c3ccccc23)NC(=O)[C@H]([C@@H](C)O)NC(=O)[C@@H]2CCCN2C(=O)[C@H]2CCCN2C(=O)[C@H](CCN)NC(=O)[C@H]([C@@H](C)CC)NC(=O)[C@H](CCN)NC(=O)[C@H](CCN)NC(=O)[C@H](Cc2c[nH]c3ccccc23)NC(=O)[C@H](CCN)NC(=O)[C@H](CCN)NC(=O)[C@H](CCCCN)NC(=O)[C@H](CCN)NC1=O [Example 8] (cyclo(TWI[Dab]K[Dab][Dab]W[Dab][Dab]I[Dab][dP]P)) | 0.05 µg/mL (≈ 0.0308 µM) | 0.43 µg/mL (≈ 0.265 µM) | 0.18 µg/mL (≈ 0.111 µM) | 0.31 µg/mL (≈ 0.191 µM) | 0.18 µg/mL (≈ 0.111 µM) | 50 µM | 0% | 0.23 µg/mL
3 | CC[C@H](C)[C@@H]1NC(=O)[C@H](Cc2c[nH]c3ccccc23)NC(=O)[C@H]([C@@H](C)O)NC(=O)[C@@H]2CCCN2C(=O)[C@H]2CCCN2C(=O)[C@H](CCN)NC(=O)[C@H](CC2CCCCC2)NC(=O)[C@H](CCN)NC(=O)[C@H](CCN)NC(=O)[C@H](Cc2c[nH]c3ccccc23)NC(=O)[C@H](CCN)NC(=O)[C@H](CCN)NC(=O)[C@H](CCCCN)NC(=O)[C@H](CCN)NC1=O [Example 12] (cyclo(TWI[Dab]K[Dab][Dab]W[Dab][Dab][Cha][Dab][dP]P)) | 0.40 µg/mL (≈ 0.241 µM) | >2 µg/mL | 2.00 µg/mL (≈ 1.2 µM) | 0.75 µg/mL (≈ 0.451 µM) | 1.00 µg/mL (≈ 0.601 µM) | 50 µM | 0.7% | >1 µg/mL
4 | CC[C@H](C)[C@@H]1NC(=O)[C@H](Cc2c[nH]c3ccccc23)NC(=O)[C@H]([C@@H](C)O)NC(=O)[C@@H]2CCCN2C(=O)[C@H]2CCCN2C(=O)[C@H](CCN)NC(=O)[C@H](C2CCCCC2)NC(=O)[C@H](CCN)NC(=O)[C@H](CCN)NC(=O)[C@H](Cc2c[nH]c3ccccc23)NC(=O)[C@H](CCN)NC(=O)[C@H](CCN)NC(=O)[C@H](CCCCN)NC(=O)[C@H](CCN)NC1=O [Example 11] (cyclo(TWI[Dab]K[Dab][Dab]W[Dab][Dab][Chg][Dab][dP]P)) | 0.30 µg/mL (≈ 0.182 µM) | >2 µg/mL | 2.00 µg/mL (≈ 1.21 µM) | 0.75 µg/mL (≈ 0.455 µM) | 1.00 µg/mL (≈ 0.606 µM) | 50 µM | 0.5% | >1 µg/mL
5 | CC[C@H](C)[C@@H]1NC(=O)[C@H](Cc2c[nH]c3ccccc23)NC(=O)[C@H]([C@@H](C)O)NC(=O)[C@@H]2CCCN2C(=O)[C@H]2CCCN2C(=O)[C@H](CCN)NC(=O)[C@H](C(C)C)NC(=O)[C@H](CCN)NC(=O)[C@H](CCN)NC(=O)[C@H](Cc2c[nH]c3ccccc23)NC(=O)[C@H](CCN)NC(=O)[C@H](CCN)NC(=O)[C@H](CCCCN)NC(=O)[C@H](CCC(N)=O)NC1=O [Example 30] (cyclo(TWIQK[Dab][Dab]W[Dab][Dab]V[Dab][dP]P)) | 0.09 µg/mL (≈ 0.055 µM) | 2.00 µg/mL (≈ 1.22 µM) | 0.30 µg/mL (≈ 0.183 µM) | 0.50 µg/mL (≈ 0.305 µM) | 0.13 µg/mL (≈ 0.0794 µM) | 46 µM | 0.5% | 0.60 µg/mL
6 | CC[C@H](C)[C@@H]1NC(=O)[C@H](Cc2ccc(O)cc2)NC(=O)[C@H](CC(=O)O)NC(=O)[C@@H]2CCCN2C(=O)[C@H]2CCCN2C(=O)[C@H](CCN)NC(=O)[C@H](C)NC(=O)[C@H](CCN)NC(=O)[C@H](CCN)NC(=O)[C@H](Cc2c[nH]c3ccccc23)NC(=O)[C@H](CCN)NC(=O)[C@@H](CCN)NC(=O)[C@H](CCCN)NC(=O)[C@H](CCN)NC1=O [Example 43] (cyclo(DYI[Dab][Orn][dDab][Dab]W[Dab][Dab]A[Dab][dP]P)) | 0.13 µg/mL (≈ 0.0834 µM) | 2.00 µg/mL (≈ 1.28 µM) | 0.125 µg/mL (≈ 0.0802 µM) | 2.00 µg/mL (≈ 1.28 µM) | 0.50 µg/mL (≈ 0.321 µM) | 50 µM | 0.5% | 0.95 µg/mL
7 | CC[C@H](C)[C@@H]1NC(=O)[C@H](Cc2c[nH]c3ccccc23)NC(=O)[C@H]([C@@H](C)O)NC(=O)[C@@H]2CCCN2C(=O)[C@H]2CCCN2C(=O)[C@H](CO)NC(=O)[C@H](C)NC(=O)[C@H](CCN)NC(=O)[C@H](CCN)NC(=O)[C@H](Cc2c[nH]c3ccccc23)NC(=O)[C@H](CCN)NC(=O)[C@@H](CCN)NC(=O)[C@H](CCCN)NC(=O)[C@H](CCN)NC1=O [Example 49] (cyclo(TWI[Dab][Orn][dDab][Dab]W[Dab][Dab]AS[dP]P)) | 0.03 µg/mL (≈ 0.0193 µM) | 0.50 µg/mL (≈ 0.322 µM) | 0.03 µg/mL (≈ 0.0193 µM) | 0.25 µg/mL (≈ 0.161 µM) | 0.06 µg/mL (≈ 0.0386 µM) | 50 µM | 0.1% | 0.17 µg/mL
